Columns and labels:
wildtype LRRK2 = biological target: T1, wildtype LRRK2 (Homo sapiens, UniProt Q5S007); assay: LRRK2 degradation HiBit assay, wildtype LRRK2 tagged with a HiBit tag in HEK293 cells; type: cell-based; details: 24 hours compound incubation; for Dmax: read-out: ** WT Dmax (%); for DC50: read-out: *WT DC50
T1 construct: endogenous in cells; host or cells: HEK293 with HiBit knocked in at the 3' end of the endogenous LRRK2 gene, stably expressing firefly luciferase
Description: (§1) The assay measures the degradation of wildtype and G2019S LRRK2 tagged with a HiBit tag on the C-terminus of the protein that was expressed from a mammalian expression vector, driven by the ubiquitin promoter in HEK293 cells. Each compound dose-response was repeated on two separate days, on three separate plates each day.
(§2) Plasmid Preparation. Transfection mixes were assembled as follows and incubated for 30 minutes at room temperature. In a 15 mL tube, 5.25 mL Opti-MEM (no additions) was mixed with 17 μL Firefly Luciferase plasmid at 1 μg/μL and 158 μL WT plasmid DNA at 1 μg/μL (175 μg total DNA) were mixed by flicking. In a new 15 mL tube, 5.25 mL OptiMEM was mixed with 17 μL Firefly Luciferase plasmid at 1 μg/μL and 158 μL G2019S plasmid DNA at 1 μg/μL (175 μg total DNA) were mixed by flicking. X-tremeGene HP was mixed thoroughly using a vortex. Next, 175 μL was added to each tube and flicked to mix. Both tubes were left to incubate for 30 minutes at room temperature.
While the transfection mixes were incubating, HEK293 cells (acquired from ATCC; ATCC CRL-1573) were harvested with trypsin. Once cells are detached, the cells were resuspended in 12 mL OptiMEM+5% FBS and transferred to a 50 mL tube. The cells were mixed well and counted. Using OptiMEM+5% FBS, the cells were diluted in two 250 mL conical tubes at 0.71×10^6 cells/mL in 70 mL. One tube was labeled “WT” and the other “G2019S”. The WT and G2019S transfection mixes were added dropwise to the corresponding 250 mL tubes. The tubes were mixed first by pipetting then by swirling. The tubes were incubated at room temperature for at least 5 minutes.
(§3) Each tube was swirled before dispensing and after every three plates. Seventy microliters of cells were dispensed with WT or G2019S DNA to seven plates each. Three plates of each were tested with compound plate one (preparation described below) and three plates of each were tested with compound plate two (preparation described below). The first plate from each set served as a “prime” plate and was not used to test compounds. Each plate was incubated in the hood for 10 minutes before placing in the 37° C. incubator for 24 hours.
(§4) Preparation of Compound and Assay Plates. Two compound plates were made using 96 well polypropylene plates. Compounds were made up at 10 mM and were diluted to 1 mM in 30 μL. Each dose response curve included a well of DMSO, as a negative control and for normalization, and a well of 0.5 μM of Exemplary Compound 4 as a positive control. In addition to seven test compounds, each plate also included a dose response of Exemplary Compound 4. The compound plates were spun down along at 1200 rpm for 2 minutes.
(§5) The two compound plates were then mixed and 2 μL was diluted in intermediate plates having 248 μL of Opti-Mem in each well. Next, 10 μL diluted compounds from the intermediate plates were added to each test plate (three WT and three G2019S plates per compound plate for a total of 12 assay plates). The plates were incubated for 24 hours at 37° C.
(§6) All assay plates and all Nano-Glo Dual-Luciferase Reporter Assay System components (except for the DLR substrate) were equilibrated to room temperature. Next, the luciferase buffer was mixed with the lyophilized amber bottle until fully dissolved, and 75 μL of the luciferase mixture was added to each well of each assay plate. The assay plates were incubated for 10 minutes at room temperature with shaking for at least 5 minutes, and then read on a plate reader.
(§7) Developing Plates and Analyzing Data. One milliliter of DLR substrate and 1 mL LgBiT Protein were added to the Stop and Glo buffer, and 75 μL of the mixture was added to each well of each plate. Optically clear seals were added to each plate and each plate was incubated for 20 minutes with shaking for at least 10 minutes, and then read on a plate reader. […]

G2019S LRRK2 = biological target: T2, G2019S LRRK2 (Homo sapiens, UniProt Q5S007, G2019S); assay: LRRK2 degradation HiBit assay, G2019S LRRK2 tagged with a HiBit tag expressed in HEK293 cells; type: cell-based; details: 24 hours compound incubation; for Dmax: HEK293, HEK293 cells; for DC50: HEK293 cells
T2 construct: expressed in transfected cells; host or cells: HEK293 (ATCC CRL-1573)
T2 sequence (Q5S007 whole entry G2019S): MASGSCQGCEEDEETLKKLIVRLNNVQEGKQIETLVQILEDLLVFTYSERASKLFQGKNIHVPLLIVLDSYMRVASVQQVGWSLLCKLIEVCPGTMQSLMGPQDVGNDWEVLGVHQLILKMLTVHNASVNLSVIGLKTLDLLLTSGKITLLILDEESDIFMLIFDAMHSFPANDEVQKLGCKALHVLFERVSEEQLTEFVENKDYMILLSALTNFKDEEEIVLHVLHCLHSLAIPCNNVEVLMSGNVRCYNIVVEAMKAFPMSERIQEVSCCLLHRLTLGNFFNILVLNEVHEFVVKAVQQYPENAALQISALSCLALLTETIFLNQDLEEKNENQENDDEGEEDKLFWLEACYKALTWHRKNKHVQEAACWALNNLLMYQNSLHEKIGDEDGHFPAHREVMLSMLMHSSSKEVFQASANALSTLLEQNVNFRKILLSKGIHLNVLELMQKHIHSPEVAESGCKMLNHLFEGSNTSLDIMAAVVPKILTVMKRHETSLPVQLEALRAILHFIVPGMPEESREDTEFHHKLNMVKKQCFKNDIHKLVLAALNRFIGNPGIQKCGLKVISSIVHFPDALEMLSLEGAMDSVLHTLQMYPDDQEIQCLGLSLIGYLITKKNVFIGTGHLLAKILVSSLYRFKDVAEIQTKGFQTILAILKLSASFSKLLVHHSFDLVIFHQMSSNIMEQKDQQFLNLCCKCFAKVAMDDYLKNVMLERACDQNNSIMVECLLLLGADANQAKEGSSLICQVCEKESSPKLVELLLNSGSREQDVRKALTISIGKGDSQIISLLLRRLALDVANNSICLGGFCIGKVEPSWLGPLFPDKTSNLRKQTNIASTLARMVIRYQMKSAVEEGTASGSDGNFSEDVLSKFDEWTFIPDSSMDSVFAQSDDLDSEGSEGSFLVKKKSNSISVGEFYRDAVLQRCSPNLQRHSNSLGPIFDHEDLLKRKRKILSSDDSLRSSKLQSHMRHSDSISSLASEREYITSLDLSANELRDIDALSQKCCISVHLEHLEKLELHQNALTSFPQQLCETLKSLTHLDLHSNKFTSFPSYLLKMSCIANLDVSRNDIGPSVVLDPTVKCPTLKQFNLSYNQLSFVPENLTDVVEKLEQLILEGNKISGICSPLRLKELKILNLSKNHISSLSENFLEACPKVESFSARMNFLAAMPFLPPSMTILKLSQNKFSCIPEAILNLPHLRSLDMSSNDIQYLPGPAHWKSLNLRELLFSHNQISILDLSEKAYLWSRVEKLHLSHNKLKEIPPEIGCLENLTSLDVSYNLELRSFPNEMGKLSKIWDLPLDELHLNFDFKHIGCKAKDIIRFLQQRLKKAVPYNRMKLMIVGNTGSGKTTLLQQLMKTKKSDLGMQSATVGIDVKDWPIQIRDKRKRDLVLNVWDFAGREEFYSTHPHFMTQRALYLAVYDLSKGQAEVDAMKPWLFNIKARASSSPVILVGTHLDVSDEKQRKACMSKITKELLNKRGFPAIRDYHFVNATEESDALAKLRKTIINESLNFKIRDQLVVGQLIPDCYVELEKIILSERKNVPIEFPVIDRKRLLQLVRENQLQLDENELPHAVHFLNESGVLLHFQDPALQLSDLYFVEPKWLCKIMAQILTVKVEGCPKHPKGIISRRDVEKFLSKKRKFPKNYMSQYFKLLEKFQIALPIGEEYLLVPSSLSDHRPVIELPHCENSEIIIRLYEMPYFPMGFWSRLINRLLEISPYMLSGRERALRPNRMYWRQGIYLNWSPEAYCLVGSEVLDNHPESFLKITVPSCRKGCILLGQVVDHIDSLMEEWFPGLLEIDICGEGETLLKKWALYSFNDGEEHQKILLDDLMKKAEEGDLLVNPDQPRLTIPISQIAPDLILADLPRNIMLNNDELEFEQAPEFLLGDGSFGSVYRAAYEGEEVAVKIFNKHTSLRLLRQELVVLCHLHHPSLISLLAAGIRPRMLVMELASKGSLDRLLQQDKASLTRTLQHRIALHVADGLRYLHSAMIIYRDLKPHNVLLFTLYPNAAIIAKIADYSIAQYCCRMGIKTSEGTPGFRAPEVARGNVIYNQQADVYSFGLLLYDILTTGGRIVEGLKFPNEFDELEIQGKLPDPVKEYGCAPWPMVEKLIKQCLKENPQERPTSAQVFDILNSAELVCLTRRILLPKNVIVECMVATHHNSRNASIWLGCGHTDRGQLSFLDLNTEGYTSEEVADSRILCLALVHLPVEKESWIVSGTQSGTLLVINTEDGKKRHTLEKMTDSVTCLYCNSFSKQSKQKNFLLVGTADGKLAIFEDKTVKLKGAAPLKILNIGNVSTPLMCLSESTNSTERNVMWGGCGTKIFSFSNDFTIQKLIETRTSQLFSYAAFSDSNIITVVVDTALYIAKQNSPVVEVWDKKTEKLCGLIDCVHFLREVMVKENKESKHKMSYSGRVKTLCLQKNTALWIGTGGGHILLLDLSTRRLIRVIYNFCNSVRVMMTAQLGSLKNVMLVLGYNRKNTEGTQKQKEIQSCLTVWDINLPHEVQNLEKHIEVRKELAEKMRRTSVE
Description: as §1, with “three” for “two”
as §2
While the transfection mixes were incubating, HEK293 cells acquired from ATCC (ATCC CRL-1573) were harvested with trypsin. Once cells are detached, the cells were resuspended in 12 mL OptiMEM+5% FBS and transferred to a 50 mL tube. The cells were mixed well and counted. Using OptiMEM+5% FBS, the cells were diluted in two 250 mL conical tubes at 0.71×10^6 cells/mL in 70 mL. One tube was labeled “WT” and the other “G2019S”. The WT and G2019S transfection mixes were added dropwise to the corresponding 250 mL tubes. The tubes were mixed first by pipetting then by swirling. The tubes were incubated at room temperature for at least 5 minutes.
as §3, §4, §5, §6, §7

T1 sequence (Q5S007 whole entry): as the sequence (Q5S007 whole entry G2019S) above, with S2019G counted along it

Q: Which Dmax (wildtype LRRK2) does the source give for `CC1=C(C(=O)Nc2ccc3[nH]nc(-c4ccnc(N5CCN(CC6CCN(CC7CCN(c8ccc9c(c8)C(=O)N(C8CCC(=O)NC8=O)C9=O)CC7)CC6)CC5)c4)c3c2)Cn2nnnc2N1C` (stereo not shown) [compound 13, N-(3-(2-(4-((1-((1-(2-(2,6-dioxopiperidin-3-yl)-1,3-dioxoisoindolin-5-yl)piperidin-4-yl)methyl)piperidin-4-yl)methyl)piperazin-1-yl)pyridin-4-yl)-1H-indazol-5-yl)-4,5-dimethyl-4,7-dihydrotetrazolo[1,5-a]pyrimidine-6-carboxamide] here?
A: < 50%

Q: What about the DC50 (wildtype LRRK2) of the same compound?
A: ≥ 0.1 µM

Q: What about the Dmax (G2019S LRRK2) of the same compound?
A: 50 to 70%

Q: What about the DC50 (G2019S LRRK2) of the same compound?
A: 0.01 to 0.05 µM

Q: With `CC1=C(C(=O)Nc2ccc3[nH]nc(-c4ccnc(N5CCN(CCC6CCN(CC7CCN(c8ccc9c(c8)C(=O)N(C8CCC(=O)NC8=O)C9=O)CC7)CC6)CC5)c4)c3c2)[C@@H](C)n2nnnc2N1C` (stereo partly drawn) [compound 14, (7R)-N-(3-(2-(4-(2-(1-((1-(2-(2,6-dioxopiperidin-3-yl)-1,3-dioxoisoindolin-5-yl)piperidin-4-yl)methyl)piperidin-4-yl)ethyl)piperazin-1-yl)pyridin-4-yl)-1H-indazol-5-yl)-4,5,7-trimethyl-4,7-dihydrotetrazolo[1,5-a]pyrimidine-6-carboxamide] as the compound, how does the Dmax (wildtype LRRK2) read?
A: 50 to 70%

Q: And the DC50 (wildtype LRRK2)?
A: ≥ 0.1 µM

Q: What about the Dmax (G2019S LRRK2) of the same compound?
A: < 50%

Q: And the DC50 (G2019S LRRK2)?
A: 0.05 to 0.1 µM

Q: How did the Dmax (wildtype LRRK2) turn out when `CC1=C(C(=O)Nc2ccc3[nH]nc(-c4ccnc(N5CCN(CCCN6CCN(c7ccc8c(c7)C(=O)N(C7CCC(=O)NC7=O)C8=O)CC6)CC5)c4)c3c2)[C@@H](C)n2nnnc2N1C` (stereo partly drawn) [compound 15, (7R)-N-(3-(2-(4-(3-(4-(2-(2,6-dioxopiperidin-3-yl)-1,3-dioxoisoindolin-5-yl)piperazin-1-yl)propyl)piperazin-1-yl)pyridin-4-yl)-1H-indazol-5-yl)-4,5,7-trimethyl-4,7-dihydrotetrazolo[1,5-a]pyrimidine-6-carboxamide] was run?
A: 50 to 70%

Q: What about the DC50 (wildtype LRRK2) of the same compound?
A: ≥ 0.1 µM

Q: What about the Dmax (G2019S LRRK2) of the same compound?
A: 50 to 70%

Q: And the DC50 (G2019S LRRK2)?
A: 0.01 to 0.05 µM

Q: Which Dmax (wildtype LRRK2) does the source give for `CC1=C(C(=O)Nc2ccc3[nH]nc(-c4ccnc(N5CCN(CC6CN(CC7CCN(c8ccc9c(c8)C(=O)N(C8CCC(=O)NC8=O)C9=O)CC7)C6)CC5)c4)c3c2)[C@@H](C)n2nnnc2N1C` (stereo partly drawn) [compound 17, (7R)-N-(3-(2-(4-((1-((1-(2-(2,6-dioxopiperidin-3-yl)-1,3-dioxoisoindolin-5-yl)piperidin-4-yl)methyl)azetidin-3-yl)methyl)piperazin-1-yl)pyridin-4-yl)-1H-indazol-5-yl)-4,5,7-trimethyl-4,7-dihydrotetrazolo[1,5-a]pyrimidine-6-carboxamide] here?
A: 50 to 70%

Q: And the DC50 (wildtype LRRK2)?
A: ≥ 0.1 µM

Q: What about the Dmax (G2019S LRRK2) of the same compound?
A: 50 to 70%

Q: And the DC50 (G2019S LRRK2)?
A: 0.05 to 0.1 µM

Q: Which results are given for `CC1=C(C(=O)Nc2ccc3[nH]nc(-c4ccnc(N5CCN(CC6CCN(C7CCN(c8ccc9c(c8)C(=O)N(C8CCC(=O)NC8=O)C9=O)CC7)CC6)CC5)c4)c3c2)[C@@H](C)n2nnnc2N1C` (stereo partly drawn) [compound 18, (7R)-N-(3-(2-(4-((1-(1-(2-(2,6-dioxopiperidin-3-yl)-1,3-dioxoisoindolin-5-yl)piperidin-4-yl)piperidin-4-yl)methyl)piperazin-1-yl)pyridin-4-yl)-1H-indazol-5-yl)-4,5,7-trimethyl-4,7-dihydrotetrazolo[1,5-a]pyrimidine-6-carboxamide]?
A: Dmax (wildtype LRRK2): < 50%; DC50 (wildtype LRRK2): ≥ 0.1 µM; Dmax (G2019S LRRK2): 50 to 70%; DC50 (G2019S LRRK2): 0.05 to 0.1 µM

Q: How did the DC50 (wildtype LRRK2) turn out when `CC1=C(C(=O)Nc2ccc3[nH]nc(-c4ccnc(N5CCN(CCOCCN6CC7(C6)CN(c6ccc8c(c6)C(=O)N(C6CCC(=O)NC6=O)C8=O)C7)CC5)c4)c3c2)[C@@H](C)n2nnnc2N1C` (stereo partly drawn) [compound 20, (7R)-N-[3-(2-{4-[2-(2-{6-[2-(2,6-dioxopiperidin-3-yl)-1,3-dioxo-2,3-dihydro-1H-isoindol-5-yl]-2,6-diazaspiro[3.3]heptan-2-yl}ethoxy)ethyl]piperazin-1-yl}pyridin-4-yl)-1H-indazol-5-yl]-4,5,7-trimethyl-4H,7H-[1,2,3,4]tetrazolo[1,5-a]pyrimidine-6-carboxamide] was run?
A: ≥ 0.1 µM

Q: And the DC50 (G2019S LRRK2)?
A: ≥ 0.1 µM

Q: Which DC50 (wildtype LRRK2) does the source give for `CC1=C(C(=O)Nc2ccc3[nH]nc(-c4ccnc(N5CCN(CCN6CCN(CC7CCN(c8ccc9c(c8)C(=O)N(C8CCC(=O)NC8=O)C9=O)CC7)CC6)CC5)c4)c3c2)[C@@H](C)n2nnnc2N1C` (stereo partly drawn) [compound 21, (7R)-N-(3-(2-(4-(2-(4-((1-(2-(2,6-dioxopiperidin-3-yl)-1,3-dioxoisoindolin-5-yl)piperidin-4-yl)methyl)piperazin-1-yl)ethyl)piperazin-1-yl)pyridin-4-yl)-1H-indazol-5-y1)-4,5,7-trimethyl-4,7-dihydrotetrazolo[1,5-a]pyrimidine-6-carboxamide] here?
A: ≥ 0.1 µM

Q: And the Dmax (G2019S LRRK2)?
A: 50 to 70%

Q: What about the DC50 (G2019S LRRK2) of the same compound?
A: ≥ 0.1 µM

Q: With `CC1=C(C(=O)Nc2ccc3[nH]nc(-c4ccnc(N5CCN(CC(F)(F)C6CCN(CC7CCN(c8ccc9c(c8)C(=O)N(C8CCC(=O)NC8=O)C9=O)CC7)CC6)CC5)c4)c3c2)[C@@H](C)n2nnnc2N1C` (stereo partly drawn) [compound 22, (7R)-N-(3-(2-(4-(2-(1-((1-(2-(2,6-dioxopiperidin-3-yl)-1,3-dioxoisoindolin-5-yl)piperidin-4-yl)methyl)piperidin-4-yl)-2,2-difluoroethyl)piperazin-1-yl)pyridin-4-yl)-1H-indazol-5-yl)-4,5,7-trimethyl-4,7-dihydrotetrazolo[1,5-a]pyrimidine-6-carboxamide] as the compound, how does the Dmax (wildtype LRRK2) read?
A: 50 to 70%

Q: And the DC50 (wildtype LRRK2)?
A: < 0.01 µM

Q: And the Dmax (G2019S LRRK2)?
A: 50 to 70%

Q: What about the DC50 (G2019S LRRK2) of the same compound?
A: < 0.01 µM

Q: Which results are given for `CC1=C(C(=O)Nc2ccc3[nH]nc(-c4ccnc(N5CCN(CCN6CCC(CC7CCN(c8ccc9c(c8)C(=O)N(C8CCC(=O)NC8=O)C9=O)CC7)CC6)CC5)c4)c3c2)[C@@H](C)n2nnnc2N1C` (stereo partly drawn) [compound 23, (7R)-N-(3-(2-(4-(2-(4-((1-(2-(2,6-dioxopiperidin-3-yl)-1,3-dioxoisoindolin-5-yl)piperidin-4-yl)methyl)piperidin-1-yl)ethyl)piperazin-1-yl)pyridin-4-yl)-1H-indazol-5-yl)-4,5,7-trimethyl-4,7-dihydrotetrazolo[1,5-a]pyrimidine-6-carboxamide]?
A: Dmax (wildtype LRRK2): 50 to 70%; DC50 (wildtype LRRK2): 0.05 to 0.1 µM; Dmax (G2019S LRRK2): 50 to 70%; DC50 (G2019S LRRK2): 0.01 to 0.05 µM

Q: Which results are given for `CC1=C(C(=O)Nc2ccc3[nH]nc(-c4ccnc(N5CCN(C6CN(CC7CCN(c8ccc9c(c8)C(=O)N(C8CCC(=O)NC8=O)C9=O)CC7)C6)CC5)c4)c3c2)[C@@H](C)n2nnnc2N1C` (stereo partly drawn) [compound 24, (7R)-N-[3-(2-{4-[1-({1-[2-(2,6-dioxopiperidin-3-yl)-1,3-dioxo-2,3-dihydro-1H-isoindol-5-yl]piperidin-4-yl}methyl)azetidin-3-yl]piperazin-1-yl}pyridin-4-yl)-1H-indazol-5-yl]-4,5,7-trimethyl-4H,7H-[1,2,3,4]tetrazolo[1,5-a]pyrimidine-6-carboxamide]?
A: Dmax (wildtype LRRK2): < 50%; DC50 (wildtype LRRK2): 0.01 to 0.05 µM; Dmax (G2019S LRRK2): 50 to 70%; DC50 (G2019S LRRK2): 0.01 to 0.05 µM
